Assay results reported in patent publication US10670605B2, “Cysteine reactive probes and uses thereof” (The Scripps Research Institute, priority 2015, dated 2020).

What was measured:
Test in all cases: Competitive isoTOP-ABPP in situ (fragment-treated cells)
Assay type in all cases: cell-based
[1] = target: cysteines in MDA-MB-231 and Ramos cells (Homo sapiens, UniProt Q96EY5); conditions: 200 μM, insitu, 231
[2] = target: cysteines in MDA-MB-231 and Ramos cells (Homo sapiens, UniProt Q15118); conditions: 200 μM, insitu, 231
Chain of cysteines in MDA-MB-231 and Ramos cells (Homo sapiens, UniProt Q15118) (Q15118 29-436): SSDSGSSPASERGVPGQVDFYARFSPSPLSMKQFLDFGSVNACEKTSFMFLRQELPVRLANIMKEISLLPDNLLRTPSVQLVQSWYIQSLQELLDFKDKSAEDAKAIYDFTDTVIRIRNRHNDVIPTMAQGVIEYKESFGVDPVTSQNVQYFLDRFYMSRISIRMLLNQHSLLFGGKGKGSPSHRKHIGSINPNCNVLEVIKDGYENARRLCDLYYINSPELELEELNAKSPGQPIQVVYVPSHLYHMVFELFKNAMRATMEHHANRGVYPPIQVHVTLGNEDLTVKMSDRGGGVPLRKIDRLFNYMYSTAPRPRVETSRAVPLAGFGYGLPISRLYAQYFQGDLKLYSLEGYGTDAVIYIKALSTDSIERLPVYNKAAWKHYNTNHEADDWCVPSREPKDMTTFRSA

[3] = target: cysteines in MDA-MB-231 and Ramos cells (Homo sapiens, UniProt Q9UJW0); conditions: 200 μM, insitu
Chain of cysteines in MDA-MB-231 and Ramos cells (Homo sapiens, UniProt Q9UJW0) (Q9UJW0 whole entry): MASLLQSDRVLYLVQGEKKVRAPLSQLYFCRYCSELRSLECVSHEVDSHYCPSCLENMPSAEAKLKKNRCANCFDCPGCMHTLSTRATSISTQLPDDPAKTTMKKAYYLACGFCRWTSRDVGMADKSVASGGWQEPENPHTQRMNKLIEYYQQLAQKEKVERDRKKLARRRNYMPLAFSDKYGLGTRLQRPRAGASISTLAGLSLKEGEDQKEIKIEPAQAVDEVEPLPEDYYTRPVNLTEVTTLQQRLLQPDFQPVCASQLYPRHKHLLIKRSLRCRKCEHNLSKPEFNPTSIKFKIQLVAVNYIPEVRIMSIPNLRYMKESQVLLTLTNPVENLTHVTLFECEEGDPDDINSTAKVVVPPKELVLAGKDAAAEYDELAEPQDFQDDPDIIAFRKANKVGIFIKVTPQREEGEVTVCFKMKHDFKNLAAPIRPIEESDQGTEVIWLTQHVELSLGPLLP

[4] = target: T1, cysteines in MDA-MB-231 and Ramos cells (Homo sapiens, UniProt Q13158); conditions: 200 μM, insitu, 231
T1 sequence (Q13158 1-208): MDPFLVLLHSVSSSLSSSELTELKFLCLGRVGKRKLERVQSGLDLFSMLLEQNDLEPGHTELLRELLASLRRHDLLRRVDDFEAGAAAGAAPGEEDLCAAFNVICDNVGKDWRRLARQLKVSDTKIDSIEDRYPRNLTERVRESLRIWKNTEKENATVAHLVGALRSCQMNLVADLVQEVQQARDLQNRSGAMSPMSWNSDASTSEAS

[5] = target: cysteines in MDA-MB-231 and Ramos cells (Homo sapiens, UniProt P68366); conditions: 200 μM, insitu; for isoTOP-ABPP reactivity P68366_C54 TUBA4A: 231; for isoTOP-ABPP ratio P68366_C54: ramos
Chain of cysteines in MDA-MB-231 and Ramos cells (Homo sapiens, UniProt P68366) (P68366 whole entry): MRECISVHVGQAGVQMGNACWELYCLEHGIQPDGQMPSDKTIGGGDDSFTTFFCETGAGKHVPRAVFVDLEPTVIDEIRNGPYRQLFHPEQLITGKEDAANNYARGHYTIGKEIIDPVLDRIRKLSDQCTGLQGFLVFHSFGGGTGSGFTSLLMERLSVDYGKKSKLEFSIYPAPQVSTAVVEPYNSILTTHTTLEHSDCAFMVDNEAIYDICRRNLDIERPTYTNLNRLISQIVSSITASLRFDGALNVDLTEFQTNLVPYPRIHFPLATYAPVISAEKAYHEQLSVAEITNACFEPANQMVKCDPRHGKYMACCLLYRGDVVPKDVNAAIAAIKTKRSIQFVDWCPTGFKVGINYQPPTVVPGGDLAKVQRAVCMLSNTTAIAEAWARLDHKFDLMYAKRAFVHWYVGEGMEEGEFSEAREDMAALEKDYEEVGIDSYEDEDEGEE

[6] = target: cysteines in MDA-MB-231 and Ramos cells (Homo sapiens, UniProt O15446); conditions: 200 μM, insitu, 231
Chain of cysteines in MDA-MB-231 and Ramos cells (Homo sapiens, UniProt O15446) (O15446 whole entry): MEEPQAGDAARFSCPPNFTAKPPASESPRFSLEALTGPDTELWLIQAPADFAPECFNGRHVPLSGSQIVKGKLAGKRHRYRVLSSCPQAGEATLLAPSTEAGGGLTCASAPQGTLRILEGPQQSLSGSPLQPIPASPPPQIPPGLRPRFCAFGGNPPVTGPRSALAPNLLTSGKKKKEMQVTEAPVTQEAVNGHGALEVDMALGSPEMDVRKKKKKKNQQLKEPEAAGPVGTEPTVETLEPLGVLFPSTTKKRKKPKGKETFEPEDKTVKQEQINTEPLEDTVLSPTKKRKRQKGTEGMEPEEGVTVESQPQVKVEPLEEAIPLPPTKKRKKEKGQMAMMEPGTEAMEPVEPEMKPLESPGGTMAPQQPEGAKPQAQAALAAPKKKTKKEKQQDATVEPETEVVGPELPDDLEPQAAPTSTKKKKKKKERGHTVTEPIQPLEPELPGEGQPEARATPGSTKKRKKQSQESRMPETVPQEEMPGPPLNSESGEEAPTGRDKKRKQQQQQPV

[7] = target: cysteines in MDA-MB-231 and Ramos cells (Homo sapiens, UniProt Q96FX7); conditions: 200 μM, insitu
Chain of cysteines in MDA-MB-231 and Ramos cells (Homo sapiens, UniProt Q96FX7) (Q96FX7 whole entry): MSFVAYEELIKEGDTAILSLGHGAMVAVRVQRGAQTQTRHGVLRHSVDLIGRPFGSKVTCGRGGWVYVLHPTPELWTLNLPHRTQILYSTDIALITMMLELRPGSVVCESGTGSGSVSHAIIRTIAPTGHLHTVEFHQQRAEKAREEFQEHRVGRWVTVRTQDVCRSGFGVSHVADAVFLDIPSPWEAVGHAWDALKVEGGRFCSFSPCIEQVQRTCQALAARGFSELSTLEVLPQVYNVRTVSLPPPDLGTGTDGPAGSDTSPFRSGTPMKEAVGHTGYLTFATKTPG

[8] = target: T2, cysteines in MDA-MB-231 and Ramos cells (Homo sapiens, UniProt Q86UY8); conditions: 200 μM, insitu, 231
T2 sequence (Q86UY8 1-548): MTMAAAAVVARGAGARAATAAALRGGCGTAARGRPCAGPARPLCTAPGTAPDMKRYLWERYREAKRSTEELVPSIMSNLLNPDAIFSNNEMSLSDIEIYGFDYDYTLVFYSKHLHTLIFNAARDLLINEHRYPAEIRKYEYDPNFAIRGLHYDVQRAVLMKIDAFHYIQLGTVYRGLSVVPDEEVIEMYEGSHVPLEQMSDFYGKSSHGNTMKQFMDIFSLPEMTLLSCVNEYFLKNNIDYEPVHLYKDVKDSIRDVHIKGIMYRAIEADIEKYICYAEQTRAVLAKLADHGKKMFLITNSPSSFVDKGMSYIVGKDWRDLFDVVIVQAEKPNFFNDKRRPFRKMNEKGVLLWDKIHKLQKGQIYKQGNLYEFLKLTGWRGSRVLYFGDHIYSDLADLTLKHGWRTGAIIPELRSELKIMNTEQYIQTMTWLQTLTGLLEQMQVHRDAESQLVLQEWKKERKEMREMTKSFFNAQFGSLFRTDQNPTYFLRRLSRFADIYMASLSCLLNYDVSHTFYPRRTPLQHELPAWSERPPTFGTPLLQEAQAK

[9] = target: cysteines in MDA-MB-231 and Ramos cells (Homo sapiens, UniProt Q9UNI6); conditions: 200 μM, insitu, 231
Chain of cysteines in MDA-MB-231 and Ramos cells (Homo sapiens, UniProt Q9UNI6) (Q9UNI6 whole entry): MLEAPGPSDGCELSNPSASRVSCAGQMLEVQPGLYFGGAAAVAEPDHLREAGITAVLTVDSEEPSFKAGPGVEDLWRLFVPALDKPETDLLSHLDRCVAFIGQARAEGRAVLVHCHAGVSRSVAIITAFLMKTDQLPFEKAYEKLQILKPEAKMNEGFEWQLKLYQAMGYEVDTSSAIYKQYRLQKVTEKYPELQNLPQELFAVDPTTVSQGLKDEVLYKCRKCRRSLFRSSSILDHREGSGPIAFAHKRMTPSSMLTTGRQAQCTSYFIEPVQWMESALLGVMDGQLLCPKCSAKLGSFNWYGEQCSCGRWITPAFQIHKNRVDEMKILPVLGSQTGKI

[10] = target: cysteines in MDA-MB-231 and Ramos cells (Homo sapiens, UniProt P22061); conditions: 200 μM, insitu, 231
Chain of cysteines in MDA-MB-231 and Ramos cells (Homo sapiens, UniProt P22061) (P22061 whole entry): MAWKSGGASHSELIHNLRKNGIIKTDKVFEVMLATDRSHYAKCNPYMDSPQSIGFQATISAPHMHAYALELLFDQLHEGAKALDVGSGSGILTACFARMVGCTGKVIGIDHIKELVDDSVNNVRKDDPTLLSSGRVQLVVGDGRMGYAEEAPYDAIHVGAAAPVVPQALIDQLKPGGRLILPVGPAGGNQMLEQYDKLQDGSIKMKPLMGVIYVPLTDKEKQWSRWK

[11] = target: cysteines in MDA-MB-231 and Ramos cells (Homo sapiens, UniProt Q96RP9); conditions: 200 μM, insitu
Chain of cysteines in MDA-MB-231 and Ramos cells (Homo sapiens, UniProt Q96RP9) (Q96RP9 37-751): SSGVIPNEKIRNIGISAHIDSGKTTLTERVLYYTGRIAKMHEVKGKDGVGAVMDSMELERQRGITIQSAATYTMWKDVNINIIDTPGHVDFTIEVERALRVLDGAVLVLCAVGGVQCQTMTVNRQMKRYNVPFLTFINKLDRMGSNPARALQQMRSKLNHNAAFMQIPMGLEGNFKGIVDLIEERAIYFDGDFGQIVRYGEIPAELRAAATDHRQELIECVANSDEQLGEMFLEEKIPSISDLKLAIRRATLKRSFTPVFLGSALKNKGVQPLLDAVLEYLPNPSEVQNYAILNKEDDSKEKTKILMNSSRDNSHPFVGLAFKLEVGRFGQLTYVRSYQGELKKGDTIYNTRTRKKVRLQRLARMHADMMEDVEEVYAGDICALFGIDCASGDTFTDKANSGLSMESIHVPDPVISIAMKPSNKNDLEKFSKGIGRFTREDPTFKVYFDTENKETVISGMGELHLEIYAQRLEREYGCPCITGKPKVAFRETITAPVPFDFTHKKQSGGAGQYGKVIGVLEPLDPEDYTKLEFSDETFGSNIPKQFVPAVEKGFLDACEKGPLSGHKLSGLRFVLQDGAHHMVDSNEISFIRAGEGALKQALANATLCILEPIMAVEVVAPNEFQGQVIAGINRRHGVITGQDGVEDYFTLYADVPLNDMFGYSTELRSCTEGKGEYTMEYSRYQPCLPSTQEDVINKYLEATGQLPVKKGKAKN

[12] = target: T3, cysteines in MDA-MB-231 and Ramos cells (Homo sapiens, UniProt Q9NY27); conditions: 200 μM, insitu
T3 sequence (Q9NY27 1-417): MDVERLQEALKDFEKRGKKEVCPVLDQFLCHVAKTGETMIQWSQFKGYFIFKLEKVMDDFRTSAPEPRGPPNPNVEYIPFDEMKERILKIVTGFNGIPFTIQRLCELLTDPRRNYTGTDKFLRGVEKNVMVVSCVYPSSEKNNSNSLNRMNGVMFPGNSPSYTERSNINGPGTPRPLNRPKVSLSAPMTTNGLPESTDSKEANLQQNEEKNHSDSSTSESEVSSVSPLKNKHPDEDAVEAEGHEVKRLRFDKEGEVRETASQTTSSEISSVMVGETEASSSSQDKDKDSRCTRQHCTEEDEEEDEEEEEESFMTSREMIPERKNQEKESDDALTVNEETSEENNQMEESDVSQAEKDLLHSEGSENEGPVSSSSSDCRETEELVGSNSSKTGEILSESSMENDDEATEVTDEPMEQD

[13] = target: cysteines in MDA-MB-231 and Ramos cells (Homo sapiens, UniProt Q06203); conditions: 200 μM, insitu
Chain of cysteines in MDA-MB-231 and Ramos cells (Homo sapiens, UniProt Q06203) (Q06203 12-517): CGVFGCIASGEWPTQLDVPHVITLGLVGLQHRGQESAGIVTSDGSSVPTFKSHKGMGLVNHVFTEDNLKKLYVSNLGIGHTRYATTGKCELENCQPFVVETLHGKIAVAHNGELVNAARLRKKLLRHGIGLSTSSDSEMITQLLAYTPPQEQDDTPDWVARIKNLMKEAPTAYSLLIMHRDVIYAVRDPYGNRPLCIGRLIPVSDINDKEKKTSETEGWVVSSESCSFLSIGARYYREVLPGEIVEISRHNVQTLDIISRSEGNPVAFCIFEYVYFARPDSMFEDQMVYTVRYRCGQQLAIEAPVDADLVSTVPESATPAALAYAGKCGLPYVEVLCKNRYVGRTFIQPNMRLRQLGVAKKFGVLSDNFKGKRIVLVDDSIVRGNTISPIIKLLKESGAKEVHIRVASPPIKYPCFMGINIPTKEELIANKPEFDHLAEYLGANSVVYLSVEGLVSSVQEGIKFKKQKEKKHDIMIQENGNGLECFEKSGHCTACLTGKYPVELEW

[14] = target: cysteines in MDA-MB-231 and Ramos cells (Homo sapiens, UniProt O14933); conditions: 200 μM, insitu
Chain of cysteines in MDA-MB-231 and Ramos cells (Homo sapiens, UniProt O14933) (O14933 whole entry): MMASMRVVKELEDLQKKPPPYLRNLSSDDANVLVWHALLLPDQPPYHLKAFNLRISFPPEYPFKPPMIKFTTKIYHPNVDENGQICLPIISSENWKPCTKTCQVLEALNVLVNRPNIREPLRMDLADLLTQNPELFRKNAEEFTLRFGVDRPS

[15] = target: cysteines in MDA-MB-231 and Ramos cells (Homo sapiens, UniProt P45984); conditions: 200 μM, insitu, 231
Chain of cysteines in MDA-MB-231 and Ramos cells (Homo sapiens, UniProt P45984) (P45984 whole entry): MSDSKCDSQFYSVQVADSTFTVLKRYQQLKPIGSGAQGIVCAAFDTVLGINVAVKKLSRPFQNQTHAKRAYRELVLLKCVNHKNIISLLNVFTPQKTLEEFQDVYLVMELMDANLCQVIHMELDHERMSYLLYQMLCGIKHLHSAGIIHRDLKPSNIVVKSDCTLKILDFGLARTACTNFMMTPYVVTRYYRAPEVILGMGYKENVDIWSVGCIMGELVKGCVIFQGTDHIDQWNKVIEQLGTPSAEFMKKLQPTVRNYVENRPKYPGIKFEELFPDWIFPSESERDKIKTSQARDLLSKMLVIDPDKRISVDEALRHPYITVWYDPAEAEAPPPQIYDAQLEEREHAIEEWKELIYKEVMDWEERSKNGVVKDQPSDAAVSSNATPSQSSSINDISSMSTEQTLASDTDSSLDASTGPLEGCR

COc1ccc2c(c1)CCCN2C(=O)CCl [compound 2]
isoTOP-ABPP reactivity Q96EY5_C231 FAM125A [1]: 4.1 | isoTOP-ABPP reactivity Q15118_C71 PDK1 [2]: 20.0 | isoTOP-ABPP reactivity Q9UJW0_C258 DCTN4 [3]; 231: 4.0 | isoTOP-ABPP reactivity Q13158_C98 FADD [4]: 20.0 | isoTOP-ABPP reactivity P68366_C54 TUBA4A [5]: 9.7 | isoTOP-ABPP reactivity O15446_C86 CD3EAP [6]: 3.9 | isoTOP-ABPP reactivity Q96FX7_C209 TRMT61A [7]; 231: 20.0 | isoTOP-ABPP reactivity Q86UY8_C276 NT5DC3 [8]: 3.8

COc1ccccc1OCCNC(=O)CCl [compound 28]
isoTOP-ABPP ratio Q9UNI6_C265 [9]: 0.8

O=C(CCl)NCCc1c[nH]c2ccccc12 [compound 13]
isoTOP-ABPP ratio P22061_C102 [10]: 0.9 | isoTOP-ABPP ratio, cysteine Q96RP9_C153 ([11]; ramos): 0.8 | isoTOP-ABPP ratio Q15118_C71 [2]: 1.6 | isoTOP-ABPP ratio Q9UJW0_C258 ([3]; ramos): 1.9 | isoTOP-ABPP ratio, cysteine Q13158_C98 [4]: 1.6 | isoTOP-ABPP ratio Q9NY27_C22 ([12]; ramos): 1.5 | isoTOP-ABPP ratio P68366_C54 [5]: 1.3 | isoTOP-ABPP ratio, cysteine O15446_C86 [6]: 1.3 | isoTOP-ABPP ratio, cysteine Q96FX7_C209 [7]; 231: 2.1 | isoTOP-ABPP ratio, cysteine Q96FX7_C209 ([7]; ramos): 6.8 | isoTOP-ABPP ratio, cysteine Q06203_C100 ([13]; ramos): 2.0 | isoTOP-ABPP ratio Q86UY8_C276 [8]: 1.5

Cc1ccc(C=C(C#N)C(=O)NCCN2CCOCC2)cc1 [compound 41]
isoTOP-ABPP ratio P22061_ [10]: 0.7 | isoTOP-ABPP ratio Q96RP9_C153 [11]; 231: 1.1 | isoTOP-ABPP ratio Q9UJW0_C258 [3]; 231: 0.7 | isoTOP-ABPP ratio Q9NY27_C22 [12]; 231: 0.8 | isoTOP-ABPP ratio O14933_C98 [14]; 231: 0.5 | isoTOP-ABPP ratio P45984_C177 [15]: 0.5 | isoTOP-ABPP ratio Q9UNI6_C265 [9]: 1.0 | isoTOP-ABPP ratio Q86UY8_C276 [8]: 1.7

C=CC(=O)N(Cc1cccnc1)c1cc(C(F)(F)F)cc(C(F)(F)F)c1 [compound 31]
isoTOP-ABPP ratio Q13158_C98 [4]: 0.9 | isoTOP-ABPP ratio P68366_C54 [5]: 1.1 | isoTOP-ABPP ratio O14933_C98 ([14]; ramos): 1.9 | isoTOP-ABPP ratio Q06203_C100 [13]; 231: 0.6 | isoTOP-ABPP ratio Q06203_C100 ([13]; ramos): 1.2

COc1cc2c(cc1OC)CN(C(=O)CCl)CC2 [compound 8]
isoTOP-ABPP reactivity P22061_C102 PCMT1 [10]: 4.5 | isoTOP-ABPP reactivity Q15118_C71 PDK1 [2]: 20.0 | isoTOP-ABPP reactivity Q9UJW0_C258 DCTN4 [3]; 231: 20.0 | isoTOP-ABPP reactivity P68366_C54 TUBA4A [5]: 0.9 | isoTOP-ABPP reactivity P45984_C177 MAPK9 [15]: 20.0
